Read-outs that look alike come from different tables or passages of the source.
Tested on: nucleus of the cell
Assay type: cell-based
Conditions: peptide fused to GFP reporter

Row | Substance | localization of GFP reporter chimera in the cell | localization of GFP reporter chimera in the cell (listed as GFP-Ser179Glu mutant chimera)
1 | MYRMKKKDEGSYDL (MYRMKKKDEGSYDLGKKPIYKKAPTNEFYA; from the cytoplasmic domain of syndecan-4 Ser11 of the sequence equals position Ser179 of the full length protein) [SEQ ID NO: 1] | homogenously dispersed in the cells | 
2 | SEQ ID NO: 2 (MYRMKKKDEGEYDLGKKPIYKKAPTNEFYA; from the cytoplasmic domain of syndecan-4 position Ser179 mutated into Glu) | accumulation of the reporter was detected in the nuclei | nuclear accumulation
